Data published in BindingDB's records for doi:10.1016/j.bmc.2016.06.011 (Florida A&M University, 2016).

Key:
[1] = molecular target: 5-hydroxytryptamine receptor 2A (Homo sapiens, UniProt P28223); assay: Displacement of [3H]Ketanserin from human recombinant 5HT2A receptor incubated for […] by microbeta scintillation counting method
[2] = molecular target: T1, 5-hydroxytryptamine receptor 2C (Homo sapiens, UniProt P28335); assay: Displacement of [3H]Mesulergine from human recombinant 5HT2C receptor incubated for […] by microbeta scintillation counting method
T1 sequence (P28335 whole entry): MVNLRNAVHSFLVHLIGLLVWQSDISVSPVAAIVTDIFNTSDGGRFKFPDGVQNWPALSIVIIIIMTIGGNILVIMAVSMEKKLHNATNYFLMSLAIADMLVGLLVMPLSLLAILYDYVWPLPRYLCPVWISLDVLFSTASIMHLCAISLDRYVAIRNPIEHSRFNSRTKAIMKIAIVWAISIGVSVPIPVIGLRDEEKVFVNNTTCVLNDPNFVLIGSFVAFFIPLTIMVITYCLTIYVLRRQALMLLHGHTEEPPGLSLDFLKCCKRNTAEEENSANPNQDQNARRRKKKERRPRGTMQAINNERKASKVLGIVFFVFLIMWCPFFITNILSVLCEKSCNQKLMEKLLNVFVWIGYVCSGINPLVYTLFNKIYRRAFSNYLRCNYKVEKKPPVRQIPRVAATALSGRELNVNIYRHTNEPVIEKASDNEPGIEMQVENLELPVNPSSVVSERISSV

D(4) dopamine receptor = molecular target: T2, D(4) dopamine receptor (Homo sapiens, UniProt P21917); assay: Displacement of [3H]N-methylspiperone from human recombinant dopamine D4 receptor incubated for […] by microbeta scintillation counting method
T2 sequence (P21917 whole entry): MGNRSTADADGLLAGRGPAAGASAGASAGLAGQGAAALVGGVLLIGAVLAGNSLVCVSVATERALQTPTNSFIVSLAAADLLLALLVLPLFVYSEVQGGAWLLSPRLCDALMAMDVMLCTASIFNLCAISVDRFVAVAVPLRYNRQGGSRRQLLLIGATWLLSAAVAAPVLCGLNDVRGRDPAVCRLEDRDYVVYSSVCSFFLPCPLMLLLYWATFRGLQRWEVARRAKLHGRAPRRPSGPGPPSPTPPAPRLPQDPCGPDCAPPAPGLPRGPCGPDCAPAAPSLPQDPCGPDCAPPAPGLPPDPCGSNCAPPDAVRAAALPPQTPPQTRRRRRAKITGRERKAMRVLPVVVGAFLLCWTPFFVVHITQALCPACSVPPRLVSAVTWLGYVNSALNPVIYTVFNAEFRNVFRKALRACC

Chain of 5-hydroxytryptamine receptor 2A (P28223 whole entry): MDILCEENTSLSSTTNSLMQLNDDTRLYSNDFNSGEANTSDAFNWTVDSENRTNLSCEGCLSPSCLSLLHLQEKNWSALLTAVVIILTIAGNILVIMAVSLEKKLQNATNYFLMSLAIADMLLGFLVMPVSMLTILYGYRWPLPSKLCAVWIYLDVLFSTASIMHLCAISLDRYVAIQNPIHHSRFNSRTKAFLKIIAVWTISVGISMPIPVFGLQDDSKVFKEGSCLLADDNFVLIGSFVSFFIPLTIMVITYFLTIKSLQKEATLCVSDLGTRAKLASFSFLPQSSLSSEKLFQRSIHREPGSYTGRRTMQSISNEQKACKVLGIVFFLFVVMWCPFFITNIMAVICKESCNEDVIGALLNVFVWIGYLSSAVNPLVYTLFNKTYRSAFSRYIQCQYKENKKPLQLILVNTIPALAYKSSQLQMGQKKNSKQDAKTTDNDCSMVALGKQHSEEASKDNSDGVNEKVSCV

SMILES	Ki [1] [nM]	Ki [2] [nM]	Ki (D(4) dopamine receptor) [nM]
OC1(c2ccc(Cl)cc2)CC2CCC(C1)N2CCCCc1nc2ccccc2s1 (centres undefined)	> 10000	4570	
O=C(CCCCN1CCC(n2c(=O)[nH]c3cc(Cl)ccc32)CC1)c1nc2ccccc2s1			1700
OC1(c2ccc(Cl)cc2)CCN(CCCCc2nc3ccccc3s2)CC1			141
